From patent US20250059187A1, “COVALENTLY BINDING INHIBITORS OF G12S, G12D AND/OR G12E MUTANTS OF K-RAS GTPASE” (The Regents of the University of California, priority 2021, published 2025) come the findings set out here.

Common to all, as to assay type: binding
Assay [1] addresses T1, wild type K-Ras (Homo sapiens, UniProt P01116).
T1 construct: human K-Ras (wildtype, aa 1-169); 6xHis tag + TEV cleavage site (N, cleaved yes); made in house; host or cells: E. coli BL21(DE3)
As to the kind of experiment: Covalent modification of recombinant wild-type K-Ras by whole-protein mass spectrometry. The following applies: 23° C.; for % covalent modification of wild type K-Ras: 24-h incubation, 100 μM compound, pH 7.5. As for the experimental part:
(§1) Test compounds were prepared as 100× stock solutions in DMSO. K-Ras proteins were diluted with SEC Buffer (20 mM HEPES 7.5, 150 mM NaCl, 1 mM MgCl2) to 400 nM or 1 μM. In a typical reaction, 0.5 μL 100× compound stock was mixed with 50 μL diluted K-Ras protein, and the resulting mixture was incubated for the desired amount of time. The extent of modification was assessed by electrospray mass spectrometry using a Waters Xevo G2-XS system equipped with an Acquity UPLC BEH C4 1.7 μm column. The mobile phase was a linear gradient of 5-95% acetonitrile/water+0.05% formic acid. For kinetic measurements, a 2× compound solution was first prepared in SEC Buffer, which was then mixed with 400 nM K-Ras(G12S) protein at 1:1 (v/v) ratio. Injection time stamps were used to calculate elapsed time.
as §1, with “K-Ras(G12D)” for “K-Ras(G12S)”

In assay [2] the target is T1, wild type K-Ras. Put plainly: Covalent modification of test protein after incubation with compound. The following applies: 24-h incubation with 100 μM compound at 23° C. at pH 7.5.
In another assay the target is T2, K-Ras G12D (Homo sapiens, UniProt P01116, G12D).
T2 construct: human K-Ras (G12D, aa 1-169); 6xHis tag + TEV cleavage site (N, cleaved yes); made in house; host or cells: E. coli BL21(DE3)
Described as above. The note with it: 24-h incubation with 100 μM compound at 23° C. at pH 7.5.

A further assay has as its target T3, K-Ras G12E (Homo sapiens, UniProt P01116, G12E).
T3 construct: human K-Ras (G12E, aa 1-169); 6xHis tag + TEV cleavage site (N, cleaved yes); made in house; host or cells: E. coli BL21(DE3)
Described as above. The following applies: 24-h incubation with 100 μM compound at 23° C. at pH 7.5.

Another assay has as its target K-Ras(G12S) (Homo sapiens, UniProt P01116, G12S). As to the kind of experiment: Covalent modification of recombinant K-Ras(G12S) by whole-protein mass spectrometry. More on the design: human K-Ras (G12S, aa 1-169); 6xHis tag + TEV cleavage site (N, cleaved yes); made in house; host or cells: E. coli BL21(DE3). The following applies: 23° C.; for % covalent modification of K-Ras G12S: 24-h incubation, 100 μM compound, pH 7.5. How it is done: as §1, with “The mobile phase was a linear gradient of 5-95% acetonitrile/water+0.05% formic acid.” left out
as §1, with “The mobile phase was a linear gradient of 5-95% acetonitrile/water+0.05% formic acid.” left out, “K-Ras(G12D)” for “K-Ras(G12S)”

For the compound `CN1CCC[C@H]1COc1nc2c(c(N3CCC4OC(=O)C4C3)n1)CCN(c1cccc3cccc(Cl)c13)C2` (some centres unmarked) [2′], the “covalent adducts with wild-type K-Ras protein” value on wild type K-Ras [1] (10 μM compound, 4 μM protein) was “neither of these compounds formed covalent adducts”. The “% covalent modification of wild type K-Ras” value on wild type K-Ras [1] and at wild type K-Ras [2] was 0% each time. Moreover, on K-Ras G12D, the “% covalent modification of K-Ras G12D” value is 6.0%. Further, at K-Ras G12E, the “% covalent modification of K-Ras G12E” value was found to be 7.0%. Also, the “covalent reaction with K-Ras(G12S)·GDP” value at K-Ras(G12S) (10 μM compound) is reported as “did not yield any covalent adduct”. Further, the “% covalent modification of K-Ras G12S” value at K-Ras(G12S) is given as 23.0%.
As to `O=C1O[C@@H]2CCN(c3ncnc4c(F)c(-c5ccccc5F)c(Cl)cc34)C[C@H]12` [Compound 04-005], the “% covalent modification of wild type K-Ras” value on wild type K-Ras [1] and at wild type K-Ras [2] was 0% in each case. In addition, the “% covalent modification of K-Ras G12D” value at K-Ras G12D is on record as 0%. At K-Ras G12E, the “% covalent modification of K-Ras G12E” value was 0%. Further, at K-Ras(G12S), the “% covalent modification of K-Ras G12S” value stood at 0%.
In the case of `CC1(c2cc(NCC(=O)N3CC[C@H]4OC(=O)[C@H]4C3)c(O)cc2Cl)CC1` [Compound 06-092], the “% covalent modification of wild type K-Ras” value on wild type K-Ras [1] and on wild type K-Ras [2] was 8.0% each time. Further, the “% covalent modification of K-Ras G12D” value at K-Ras G12D is listed as 2.4%. In addition, the “% covalent modification of K-Ras G12E” value on K-Ras G12E is given as 7.4%. Besides, the “% covalent modification of K-Ras G12S” value at K-Ras(G12S) turned out to be 0%.
Turning to `CC1(c2cc(NCC(=O)N3CC[C@H]4C(=O)O[C@H]4C3)c(O)cc2Cl)CC1` [Compound 06-093], the “% covalent modification of wild type K-Ras” value on wild type K-Ras [1] and at wild type K-Ras [2] was 4.8% throughout. For the same compound, the “% covalent modification of K-Ras G12D” value at K-Ras G12D came out at 2.4%. The “% covalent modification of K-Ras G12E” value on K-Ras G12E turned out to be 5.3%. In addition, on K-Ras(G12S), the “% covalent modification of K-Ras G12S” value turned out to be 0%.
In the case of `CC1(c2cc(NCC(=O)N3CC[C@H]4OC(=O)[C@@]4(C)C3)c(O)cc2Cl)CC1` [Compound 08-043], the “% covalent modification of wild type K-Ras” value on wild type K-Ras [1] and at wild type K-Ras [2] was 0% each time. Also, the “% covalent modification of K-Ras G12D” value on K-Ras G12D is recorded as 0%. Also, the “% covalent modification of K-Ras G12E” value at K-Ras G12E was 0%.
For `CC1(c2cc(NCC(=O)N3CC[C@@]4(C)C(=O)O[C@H]4C3)c(O)cc2Cl)CC1` [Compound 08-044], the “% covalent modification of wild type K-Ras” value at wild type K-Ras [1] and at wild type K-Ras [2] was 0% each time. Besides, the “% covalent modification of K-Ras G12D” value on K-Ras G12D was 0%. Moreover, the “% covalent modification of K-Ras G12E” value on K-Ras G12E stood at 0%.
Regarding `CN1CCC[C@@H]1COc1nc2c(c(N3CC[C@@]4(C)C(=O)O[C@H]4C3)n1)CCN(c1cccc3cccc(Cl)c13)C2` [Compound 12-028], the “% covalent modification of wild type K-Ras” value on wild type K-Ras [1] and at wild type K-Ras [2] was 0% in each case. Besides, the “% covalent modification of K-Ras G12D” value on K-Ras G12D was 0%. For the same compound, at K-Ras G12E, the “% covalent modification of K-Ras G12E” value was found to be 0%. On K-Ras(G12S), the “% covalent modification of K-Ras G12S” value worked out at 19.0%.
Regarding `CN1CCC[C@@H]1COc1nc2c(c(N3CC[C@H]4OC(=O)[C@@]4(C)C3)n1)CCN(c1cccc3cccc(Cl)c13)C2` [Compound 12-044], the “% covalent modification of wild type K-Ras” value at wild type K-Ras [1] and on wild type K-Ras [2] was 0% throughout. Further, the “% covalent modification of K-Ras G12D” value at K-Ras G12D worked out at 0%. For the same compound, the “% covalent modification of K-Ras G12E” value at K-Ras G12E was determined as 0%. For the same compound, the “% covalent modification of K-Ras G12S” value at K-Ras(G12S) is 0%.
`CN1CCC[C@@H]1COc1nc2c(c(N3C[C@@H]4OC(=O)[C@@H]4C3)n1)CCN(c1cccc3cccc(Cl)c13)C2` [Compound 12-058]: the “% covalent modification of wild type K-Ras” value at wild type K-Ras [1] and on wild type K-Ras [2] was 6.0% each time. Besides, on K-Ras G12D, the “% covalent modification of K-Ras G12D” value stood at 5.0%. For the same compound, at K-Ras G12E, the “% covalent modification of K-Ras G12E” value amounted to 7.0%. Besides, on K-Ras(G12S), the “% covalent modification of K-Ras G12S” value turned out to be 94.0%.
Turning to `CN1CCC[C@@H]1COc1nc2c(c(N3CCC4(CC3)CNC4=O)n1)CCN(c1cccc3cccc(Cl)c13)C2` [Compound 12-064], the “% covalent modification of wild type K-Ras” value on wild type K-Ras [1] and at wild type K-Ras [2] was 0% throughout. For the same compound, on K-Ras G12D, the “% covalent modification of K-Ras G12D” value is given as 0%. Further, the “% covalent modification of K-Ras G12E” value on K-Ras G12E was 0%. For the same compound, the “% covalent modification of K-Ras G12S” value on K-Ras(G12S) is 0%.
Turning to `CN1CCC[C@@H]1COc1nc2c(c(N3CCN4C(=O)C[C@H]4C3)n1)CCN(c1cccc3cccc(Cl)c13)C2` [Compound 12-074], the “% covalent modification of wild type K-Ras” value on wild type K-Ras [1] and on wild type K-Ras [2] was 0% each time. In addition, the “% covalent modification of K-Ras G12D” value on K-Ras G12D is 0%. The “% covalent modification of K-Ras G12E” value on K-Ras G12E is recorded as 0%. For the same compound, the “% covalent modification of K-Ras G12S” value on K-Ras(G12S) turned out to be 0%.
As for `CN1CCC[C@@H]1COc1nc2c(c(N3CC[C@H]4C(=O)O[C@H]4C3)n1)CCN(c1cccc3cccc(Cl)c13)C2` [Compound 12-077], the “% covalent modification of wild type K-Ras” value at wild type K-Ras [1] and at wild type K-Ras [2] was 7.5% throughout. For the same compound, the “% covalent modification of K-Ras G12D” value on K-Ras G12D is 6.9%. The “% covalent modification of K-Ras G12E” value on K-Ras G12E amounted to 8.6%. Moreover, on K-Ras(G12S), the “% covalent modification of K-Ras G12S” value worked out at 100%.
In the case of `CN1CCC[C@@H]1COc1nc2c(c(N3CCC4(CC3)CN(S(=O)(=O)O)C4=O)n1)CCN(c1cccc3cccc(Cl)c13)C2` [Compound 12-087], the “% covalent modification of wild type K-Ras” value at wild type K-Ras [1] and on wild type K-Ras [2] was 0% each time. Also, the “% covalent modification of K-Ras G12D” value at K-Ras G12D is on record as 0%. Moreover, at K-Ras G12E, the “% covalent modification of K-Ras G12E” value is on record as 0%. The “% covalent modification of K-Ras G12S” value at K-Ras(G12S) is listed as 0%.
`CN1CCC[C@@H]1COc1nc2c(c(N3CCC4(CC3)COC4=O)n1)CCN(c1cccc3cccc(Cl)c13)C2` [Compound 13-005]: the “% covalent modification of wild type K-Ras” value on wild type K-Ras [1] and on wild type K-Ras [2] was 73.7% throughout. In addition, the “% covalent modification of K-Ras G12D” value at K-Ras G12D worked out at 75.7%. Also, at K-Ras G12E, the “% covalent modification of K-Ras G12E” value was determined as 72.6%. For the same compound, the “% covalent modification of K-Ras G12S” value at K-Ras(G12S) amounted to 72.1%.
As to `CN1CCC[C@@H]1COc1nc2c(c(N3CCC4(CC3)CC(=O)O4)n1)CCN(c1cccc3cccc(Cl)c13)C2` [Compound 13-006], the “% covalent modification of wild type K-Ras” value on wild type K-Ras [1] and at wild type K-Ras [2] was 0% each time. Also, the “% covalent modification of K-Ras G12D” value on K-Ras G12D was found to be 0%. Also, on K-Ras G12E, the “% covalent modification of K-Ras G12E” value is 0%. Besides, the “% covalent modification of K-Ras G12S” value at K-Ras(G12S) is recorded as 0%.
Turning to `O=C1OCC12CCN(c1nc(OCC34CCCN3CCC4)nc3c1CCN(c1cccc4cccc(Cl)c14)C3)CC2` [Compound 13-018], the “% covalent modification of wild type K-Ras” value at wild type K-Ras [1] and on wild type K-Ras [2] was 85.8% in each case. Also, the “% covalent modification of K-Ras G12D” value at K-Ras G12D is 87.8%. Besides, the “% covalent modification of K-Ras G12E” value at K-Ras G12E is 75.1%. In addition, at K-Ras(G12S), the “% covalent modification of K-Ras G12S” value came to 92.8%.
